Assay results reported in ChEMBL document CHEMBL4265980, “Hemozoin inhibiting 2-phenylbenzimidazoles active against malaria parasites” (Eur J Med Chem, 2018).
Active and inactive are the calls of the source. The rule behind the calls is not given here.

Key:
[1] = system: Plasmodium falciparum; experiment: Antiplasmodial activity against asexual erythrocyte stage of chloroquine-sensitive Plasmodium falciparum NF54 infected in human red blood cells after 48 hrs by lactate dehydrogenase assay; format: functional, organism-based; conditions: for IC50: NF54, 48 h
[2] = Inhibition of beta hematin formation after 5 to 6 hrs by NP40 detergent-based assay
[3] = Resistance index, ratio of IC50 for asexual erythrocyte stage of chloroquine-resistant Plasmodium falciparum Dd2 infected in human red blood cells to IC50 for asexual erythrocyte stage of chloroquine-sensitive Plasmodium falciparum NF54 infected in human red blood cells; format: functional
[4] = Selectivity index, ratio of IC50 for CHO cells to IC50 for asexual erythrocyte stage of chloroquine-resistant Plasmodium falciparum Dd2 infected in human red blood cells; format: toxicity, cell-based; conditions: Chinese hamster, read-out: Ratio IC50
[5] = Selectivity index, ratio of IC50 for CHO cells to IC50 for asexual erythrocyte stage of chloroquine-sensitive Plasmodium falciparum NF54 infected in human red blood cells; format: toxicity, cell-based; conditions: Chinese hamster, read-out: Ratio IC50
[6] = system: CHO; experiment: Cytotoxicity against CHO cells by MTT assay; format: cell-based; conditions: Cricetulus griseus
[7] = system: Plasmodium falciparum; experiment: Antiplasmodial activity against asexual erythrocyte stage of chloroquine-resistant Plasmodium falciparum Dd2 infected in human red blood cells after 48 hrs by lactate dehydrogenase assay; format: functional, organism-based; conditions: Dd2, 48 h
[8] = system: Plasmodium falciparum; experiment: Antiplasmodial activity against Plasmodium falciparum NF54 assessed as increase in undigested hemoglobin levels after 32 hrs by spectrophotometric analysis; format: functional, organism-based
[9] = system: Plasmodium falciparum; experiment: Antiplasmodial activity against Plasmodium falciparum NF54 assessed as decrease in hemozoin levels after 32 hrs by spectrophotometric analysis; format: functional, organism-based

For `CC(=O)Nc1ccccc1`, the Activity [1] was “inactive” and the inhibition [2] was “inactive”.

For `O=C(Nc1ccc(-c2nc3ccccc3[nH]2)cc1)c1cncc(C(F)(F)F)c1`, the “Ratio IC50” value [3] was 1.4, the selectivity ratio [4] was 32 and the selectivity ratio [5] was 44. It also gave an IC50 ([1]; read-out: IC50) of 0.8 µM, an IC50 ([1]; read-out: pIC50 (converted)) of 0.794 µM and a 1/IC50 [2] of 0.0602 µM⁻¹. The IC50 [2] was 16.6 µM, the IC50 [6] was 35 µM and the IC50 [7] was 1.1 µM.

In the case of `O=C(Nc1ccc(-c2nc3ccccc3[nH]2)cc1)c1ccc[nH]1`, the IC50 ([1]; read-out: IC50) is reported as 1.2 µM, the IC50 ([1]; read-out: pIC50 (converted)) is reported as 1.2 µM and the 1/IC50 [2] is reported as 0.0215 µM⁻¹. It also gave an IC50 [2] of 46.6 µM.

In the case of `c1ccc2[nH]cnc2c1`, the Activity [1] is reported as “inactive” and the inhibition [2] is reported as “inactive”.

In the case of `CC(=O)Nc1ccc(-c2nc3ccccc3[nH]2)cc1`, the Activity [1] is reported as “inactive” and the inhibition [2] is reported as “inactive”.

In the case of `COc1ccccc1C(=O)Nc1ccc(-c2nc3ccccc3[nH]2)cc1`, the IC50 ([1]; read-out: IC50) is reported as 5.5 µM, the IC50 ([1]; read-out: pIC50 (converted)) is reported as 5.5 µM and the 1/IC50 [2] is reported as 0.0257 µM⁻¹. For the same molecule, the IC50 [2] was 38.9 µM.

With `O=C(Nc1ccc(-c2nc3ccccc3[nH]2)cc1)c1cc(Cl)nc(Cl)c1` the “Ratio IC50” value [3] was 0.64, the selectivity ratio [4] was 541 and the selectivity ratio [5] was 347. For the same molecule, the IC50 ([1]; read-out: IC50) was 0.53 µM, the IC50 ([1]; read-out: pIC50 (converted)) was 0.525 µM and the 1/IC50 [2] was 0.0595 µM⁻¹. For the same molecule, the IC50 [2] was 16.8 µM, the IC50 [6] was 184 µM and the IC50 [7] was 0.34 µM.

In the case of `O=C(Nc1ccc(-c2nc3ccccc3[nH]2)cc1)c1cccs1`, the IC50 ([1]; read-out: IC50) is reported as 7.2 µM, the IC50 ([1]; read-out: pIC50 (converted)) is reported as 7.24 µM and the 1/IC50 [2] is reported as 0.0236 µM⁻¹. For the same molecule, the IC50 [2] was 42.4 µM.

In the case of `O=C(Nc1ccc(-c2nc3ccccc3[nH]2)cc1)c1cc([N+](=O)[O-])cc([N+](=O)[O-])c1`, the “Ratio IC50” value [3] is reported as 0.46, the selectivity ratio [4] is reported as 665 and the selectivity ratio [5] is reported as 308. The IC50 ([1]; read-out: IC50) was 0.67 µM, the IC50 ([1]; read-out: pIC50 (converted)) was 0.676 µM and the 1/IC50 [2] was 0.0752 µM⁻¹. For the same molecule, the IC50 [2] was 13.3 µM, the IC50 [6] was 206 µM and the IC50 [7] was 0.31 µM.

For `O=C(Nc1ccc(-c2nc3ccccc3[nH]2)cc1)c1ccccc1[N+](=O)[O-]`, the IC50 ([1]; read-out: IC50) was 12.3 µM, the IC50 ([1]; read-out: pIC50 (converted)) was 12.3 µM and the 1/IC50 [2] was 0.0346 µM⁻¹. It also gave an IC50 [2] of 28.9 µM.

For `O=C(Nc1ccccc1)c1cncc(Br)c1`, the Activity [1] was “inactive” and the inhibition [2] was “inactive”.

Molecule `O=C(Nc1ccc(-c2nc3ccccc3[nH]2)cc1)c1cccc(Br)c1` has an IC50 ([1]; read-out: IC50) of 1.3 µM, an IC50 ([1]; read-out: pIC50 (converted)) of 1.29 µM and a 1/IC50 [2] of 0.0408 µM⁻¹. For the same molecule, the IC50 [2] was 24.5 µM.

For `O=C(Nc1ccc(-c2nc3ccccc3[nH]2)cc1)c1cncc(Br)c1`, the “Ratio IC50” value [3] was 2.4, the selectivity ratio [4] was 197 and the selectivity ratio [5] was 461. It also gave an IC50 ([1]; read-out: IC50) of 0.41 µM, an IC50 ([1]; read-out: pIC50 (converted)) of 0.407 µM and a 1/IC50 [2] of 0.0313 µM⁻¹. For the same molecule, the IC50 [2] was 32 µM, the IC50 [6] was 189 µM and the Activity [8] was “Active”. The IC50 [7] was 0.96 µM and the Activity [9] was “Active”.

With `O=C(Nc1ccc(-c2nc3ccccc3[nH]2)cc1)c1ccco1` the IC50 ([1]; read-out: IC50) was 5.9 µM, the IC50 ([1]; read-out: pIC50 (converted)) was 5.89 µM and the 1/IC50 [2] was 0.0119 µM⁻¹. It also gave an IC50 [2] of 84.1 µM.

In the case of `O=C(O)c1cncc(Br)c1`, the Activity [1] is reported as “inactive” and the inhibition [2] is reported as “inactive”.

`O=C(Nc1ccc(-c2nc3ccccc3[nH]2)cc1)c1ccccc1Cl` showed an IC50 ([1]; read-out: IC50) of 15 µM, an IC50 ([1]; read-out: pIC50 (converted)) of 15.1 µM and a 1/IC50 [2] of 0.0262 µM⁻¹. It also gave an IC50 [2] of 38.2 µM.

With `O=C(Nc1ccc(-c2nc3ccccc3[nH]2)cc1)c1cccnc1` the IC50 ([1]; read-out: IC50) was 11.6 µM, the IC50 ([1]; read-out: pIC50 (converted)) was 11.5 µM and the 1/IC50 [2] was 0.0281 µM⁻¹. For the same molecule, the IC50 [2] was 35.6 µM.

`O=C(Nc1ccc(-c2nc3ccccc3[nH]2)cc1)c1ccc(Cl)cc1` showed an IC50 ([1]; read-out: IC50) of 64 µM, an IC50 ([1]; read-out: pIC50 (converted)) of 64.6 µM and a 1/IC50 [2] of 0.0006 µM⁻¹. It also gave an IC50 [2] of 1790 µM.

For `Nc1ccc(-c2nc3ccccc3[nH]2)cc1`, the Activity [1] was “inactive” and the inhibition [2] was “inactive”.

Molecule `CC(C)(C)c1ccc(C(=O)Nc2ccc(-c3nc4ccccc4[nH]3)cc2)cc1` has an IC50 ([1]; read-out: IC50) of 2 µM, an IC50 ([1]; read-out: pIC50 (converted)) of 2 µM and a 1/IC50 [2] of 0.0028 µM⁻¹. For the same molecule, the IC50 [2] was 358 µM.

`CC[C@H]1CN2CCc3cc(OC)c(OC)cc3[C@@H]2C[C@@H]1C[C@H]1NCCc2cc(OC)c(OC)cc21` [EMETINE] gave an IC50 [6] of 0.12 µM.

In the case of `O=C(Nc1ccc(-c2nc3ccccc3[nH]2)cc1)c1cccc(C(F)(F)F)c1`, the IC50 ([1]; read-out: IC50) is reported as 1.34 µM, the IC50 ([1]; read-out: pIC50 (converted)) is reported as 1.35 µM and the 1/IC50 [2] is reported as 0.0356 µM⁻¹. It also gave an IC50 [2] of 28.1 µM.

`O=C(Nc1ccc(-c2nc3ccccc3[nH]2)cc1)c1cccc(Cl)c1` gave an IC50 ([1]; read-out: IC50) of 1.21 µM, an IC50 ([1]; read-out: pIC50 (converted)) of 1.2 µM and a 1/IC50 [2] of 0.0398 µM⁻¹. It also gave an IC50 [2] of 25.1 µM.

With `O=C(Nc1ccc(-c2nc3ccccc3[nH]2)cc1)c1ccc(Cl)cc1Cl` the IC50 ([1]; read-out: IC50) was 7.2 µM, the IC50 ([1]; read-out: pIC50 (converted)) was 7.24 µM and the 1/IC50 [2] was 0.0111 µM⁻¹. For the same molecule, the IC50 [2] was 90 µM.

Molecule `O=C(Nc1ccc(-c2nc3ccccc3[nH]2)cc1)c1ccccc1` has an IC50 ([1]; read-out: pIC50 (converted)) of 257 µM, a 1/IC50 [2] of 0.0003 µM⁻¹ and an IC50 [2] of 3900 µM.

With `CNC(=O)c1cncc(Br)c1` the Activity [1] was “inactive” and the inhibition [2] was “inactive”.
